Data set [1] deals with MCF-10 mammary cells and T47D breast cancer cells with BRCA1 and BRCA2 knock down. Description: Growth of breast cells with siRNA BRCA1/BRCA2 knock down (Example 1). The data set is classed as cell-based. The procedure:
(§1) MCF-10 mammary cells and T47D breast cancer cells obtained from ATCC were treated with siRNA knocking down the BRCA1 and BRCA2 gene.
(§2) Cell growth in comparison to untransfected and mock transfected cells was compared. In a second step cells were stimulated either with progesterone and/or with estrogens. […] The effects on progesteron receptor protein expression were further investigated.

The target of data set [2] is T1, progesterone receptor (Homo sapiens, UniProt P06401).
T1 sequence (P06401 1-933): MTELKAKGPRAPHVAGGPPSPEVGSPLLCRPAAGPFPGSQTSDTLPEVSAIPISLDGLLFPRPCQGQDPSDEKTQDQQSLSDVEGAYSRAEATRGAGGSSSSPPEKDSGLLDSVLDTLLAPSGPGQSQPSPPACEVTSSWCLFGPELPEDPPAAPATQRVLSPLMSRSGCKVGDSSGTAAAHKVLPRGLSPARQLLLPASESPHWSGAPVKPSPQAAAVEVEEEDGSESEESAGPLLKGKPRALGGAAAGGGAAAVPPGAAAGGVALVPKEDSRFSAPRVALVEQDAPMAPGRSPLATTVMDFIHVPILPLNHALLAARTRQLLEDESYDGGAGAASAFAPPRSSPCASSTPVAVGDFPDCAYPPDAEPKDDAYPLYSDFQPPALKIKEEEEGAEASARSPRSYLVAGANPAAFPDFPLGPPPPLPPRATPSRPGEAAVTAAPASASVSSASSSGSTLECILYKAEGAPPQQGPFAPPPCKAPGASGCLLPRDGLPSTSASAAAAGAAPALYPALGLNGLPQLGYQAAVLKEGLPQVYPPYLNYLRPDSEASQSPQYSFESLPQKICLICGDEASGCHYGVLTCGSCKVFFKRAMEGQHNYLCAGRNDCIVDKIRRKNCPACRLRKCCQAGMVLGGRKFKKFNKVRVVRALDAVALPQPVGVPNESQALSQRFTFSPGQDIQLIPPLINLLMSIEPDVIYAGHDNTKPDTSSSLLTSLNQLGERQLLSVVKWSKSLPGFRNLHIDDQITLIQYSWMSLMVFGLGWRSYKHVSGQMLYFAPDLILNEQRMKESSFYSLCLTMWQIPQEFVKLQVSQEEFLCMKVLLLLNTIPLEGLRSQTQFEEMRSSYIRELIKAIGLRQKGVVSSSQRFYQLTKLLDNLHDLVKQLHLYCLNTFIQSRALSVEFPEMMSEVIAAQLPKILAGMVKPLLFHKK
Description: Progesterone receptor protein expression/stability after siRNA BRCA1 knock down (Example 1). The class given is cell-based. As for the experimental part: as §1, §2

The subject of data set [3] is BRCA1-, respectively BRCA2-mediated mammary carcinogenesis. In words: Mammary tumor formation in transgenic mice with breast-specific inactivation of p53 and BRCA1/BRCA2 (Example 2). Conditions: mice monitored weekly for tumor formation; placebo group median tumor latency 6.6 months. The data set is classed as in vivo. From the text: To address the specific roles of progesterone receptors in BRCA1- and BRCA2-mediated tumorigenesis, transgenic mice with an organ specific inactivation of p53 and BRCA1, respectively BRCA2 in the breast tissue have been studied. Inactivation of both BRCA1, respectively BRCA2 and p53 or c-myc genes in the mouse mammary gland mimics the majority of human BRCA1-associated tumors, which also harbor p53 mutations.
Because progesterone is a potent mitogen for BRCA1, respectively BRCA2 p53 or c-myc Crec mammary epithelial cells, it was tested whether blockade of the progesterone receptor activity by the progesterone receptor antagonist 11β-(4-acetylphenyl)-17β-hydroxy-17α-(1,1,2,2,2-pentafluoroethyl)-estra-4,9-dien-3-one could prevent or delay mammary carcinogenesis. Mice were treated with a placebo or with 11β-(4-acetylphenyl)-17β-hydroxy-17α-(1,1,2,2,2-pentafluoroethyl)-estra-4,9-dien-3-one. The mice were monitored weekly for tumor formation. The median tumor latency of was 6.6 months for the placebo control group with all mice developing palpable tumors.

The subject of data set [4] is MCF-10 mammary cells with BRCA1 and BRCA2 knock down. In words: Growth of MCF-10 cells with siRNA BRCA1/BRCA2 knock down (Example 3). The data set is classed as cell-based. Conditions: co-treatment; MCF-10 siRNA knock down cells stimulated with progesterone and/or estrogens. The procedure:
(§3) MCF-10 mammary cells obtained from ATCC were treated with siRNA knocking down the BRCA1 and BRCA2 gene.
as §2

In data set [5] the target is T1, progesterone receptor. In words: Progesterone receptor protein expression/stability after siRNA BRCA1 knock down (Example 3). The data set is classed as cell-based. As for the experimental part: as §3, §2
The target in data set [6] is T1, progesterone receptor. Description: Endocrine profile of the progesterone-receptor antagonist.
A further data set concerns tumor cells. In words: Apoptosis of tumor cells.
For data set [7], the target named is T1, progesterone receptor. Conditions: Fuhrmann et al., J. Med. Chem. 2000; cited from earlier work.
Another data set is described as follows: Bioavailability. The class given is in vivo. The following applies: compared to ICI 182,780.
For data set [8], the system named is mammary tumors in Brca1/p53-deficient model. Conditions: mice with BRCA1- or BRCA2 inactivated in mammary glands; Poole et al., Science 2006; cited from earlier work.
For data set [9] the following is noted: administered orally; cited from earlier work.

The text below walks through data of patent US20090029954A1, “PROGESTERONE-RECEPTOR ANTAGONIST FOR USE IN BRCA ALONE OR AS COMBINATION WITH ANTIESTROGEN” (priority 2007, published 2009).

Read-outs that look alike come from different tables or passages of the source.

As for `CC(=O)c1ccc(C2C[C@@]3(C)[C@@H](CC[C@@]3(O)C(F)(F)C(F)(F)F)[C@@H]3CCC4=CC(=O)CCC4=C23)cc1` (stereo partly drawn) [11β-(4-acetylphenyl)-17β-hydroxy-17α-(1,1,2,2,2-pentafluoroethyl)-estra-4,9-dien-3-one], in [1] (Example 1), the “inhibition of the growth of BRCA1 knock down cells” value was “potent inhibition”. The “antagonism of the effects of BRCA1 knock down (increased proliferation in the presence of progesterone)” value is listed as “able to antagonize the effects of BRCA1 knock down” in data set [1] (co-treatment, siRNA knock down cells stimulated with progesterone and/or estrogens) and “able to antagonize the effects of BRCA1 knock down” in [4]. The “increased stability of progesterone receptor after BRCA1 knock down” value at progesterone receptor [2] and on progesterone receptor [5] was “could be antagonized” in each case. Moreover, the palpable tumors result in [3] is reported as “no palpable tumors were detected”. Besides, the “endocrine side effects (androgen, estrogen or antiglucocorticoid activity)” value at progesterone receptor [6] is “only very weak or no endocrine side effects”. For the same molecule, in the data set with tumor cells, the “apoptosis of tumor cells” value is reported as “increased apoptosis of tumor cells”. Moreover, the antiprogestagenic activity result on progesterone receptor [7] is “high antiprogestagenic activity”. Besides, the other endocrinological effects entry at progesterone receptor [7] is recorded as “little or no other endocrinological effects”.
Consider `CN(CCCCCCCC(F)(F)C(F)(F)F)CCCCCC1Cc2cc(O)ccc2C2C(F)CC3(C)C(CCC3(C)O)C12` (stereo not drawn) [11β-Fluoro-17α-methyl-7α-{5-[methyl(8,8,9,9,9-pentafluorononyl)-amino]pentyl}-estra-1,3,5(10)-triene-3,17β-diol], for which the bioavailability entry in “Bioavailability” is reported as “particularly high bioavailability”.
`CC#C[C@]1(O)CC[C@H]2[C@@H]3CCC4=CC(=O)CCC4=C3[C@@H](c3ccc(N(C)C)cc3)C[C@@]21C` [mifepristone]: the “development of mammary tumors” value in data set [8] was “blocks the development of mammary tumors”. Besides, the bioavailability result in data set [9] is on record as “poor bioavailability”.
